Measurements published in US20250129103A1, “METHODS FOR TREATMENT OF CANCER” (Frontier Medicines Corporation, priority 2022, published 2025).
In brackets after ≈: the same amount, converted by molar mass.

How the values were obtained:
[1] = Determination of logD (1-octanol / phosphate buffer pH 7.4); format: physicochemical; details: 1-octanol/phosphate buffer, pH 7.4, pH 7.4, 1-octanol/phosphate buffer; read-out: Log D, pH 7.4
Procedure: Preparation of phosphate buffer saturated with 1-octanol: 10 mL of 100 mM phosphate buffer (pH 7.4) was added to 100 mL of 1-octanol. The mixture was shaken vigorously and left to stand at room temperature overnight.
Preparation of 1-octanol saturated with phosphate buffer: 10 mL of 1-octanol was added to 100 mL of 100 mM phosphate buffer (pH 7.4). The mixture was shaken vigorously and left to stand at room temperature overnight.
149 μL of phosphate buffer saturated with 1-octanol was added into 1st sample tube. 149 μL of 1-octanol saturated with phosphate buffer was added into the 2nd sample tube. The sample tubes were mixed vigorously and shaken for 1 hour at a speed of 800 rpm at room temperature. The sample tubes were subjected to centrifugation at 4000 rpm for 5 minutes at room temperature. Samples of the supernatant were taken from both tubes, diluted with an appropriate LCMS buffer, and analyzed on an LCMS instrument. LogD was calculated according to the following equation.

[2] = Determination of kinetic solubility (pH 7.4); format: physicochemical; details: phosphate buffer, pH 7.4, aqueous buffer, kinetic from dmso stock, 50 mM phosphate buffer pH 7.4, read-out: Ksol, pH 7.4
Procedure: 490 μL of a 50 mM phosphate buffer (pH 7.4) was added to the sample solution. The mixture was vortexed for at least 2 minutes. The vial was shaken on a Barnstead shaker at 800 rpm at room temperature for 2 hours. The vial was centrifuged at 4000 rpm for 20 minutes. The Mini-UniPrep vial was compressed to prepare a filtrate, which was injected into an HPLC-UV and LC-MS/MS system. Kinetic solubility was calculated by referencing sample peak areas to a standard calibration curve.

[3] = target: KRAS G12C (GMPPNP-loaded) and cRAF (Ras-binding domain) interaction (Homo sapiens (Human), UniProt P01116, C118S/C51S/C80L/G12C); assay: Inhibition of KRAS G12C and cRAF binding (AlphaScreen); details: KRAS G12C loaded with GMPPNP, cRaf RBD, 2 hours preincubation; read-out: Raf-1 RBD K-Ras IC50
Chain of KRAS G12C (GMPPNP-loaded) and cRAF (Ras-binding domain) interaction (P01116 other isoform, or with tags, fused parts or gaps G12C/C51S/C80L/C118S): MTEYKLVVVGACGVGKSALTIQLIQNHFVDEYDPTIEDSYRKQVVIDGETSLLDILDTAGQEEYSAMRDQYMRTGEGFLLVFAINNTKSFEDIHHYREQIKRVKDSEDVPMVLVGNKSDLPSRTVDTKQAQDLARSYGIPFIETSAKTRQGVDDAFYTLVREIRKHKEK
In short: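 GMPPNP-loaded KRAS G12C in 25 mM Hepes pH 7.4, 150 mM NaCl, 5 mM MgCl2, 0.01% Triton X-100, 10 μM GMPPNP, 2% DMSO, preincubated with compound 2 h at room temperature. cRAF RBD plus AlphaScreen beads then added for 60-90 min; signal read at 570 nm.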

## CN(C)C/C=C/C(=O)N1CCN(c2nc(OC[C@@]34CCCN3C[C@H](F)C4)nc3c(F)c(-c4cccc(Cl)c4C4CC4)ncc23)C[C@@H]1CC#N [Compound 115, 2-((S)-4-(7-(3-chloro-2-cyclopropylphenyl)-8-fluoro-2-(((2R,7aS)-2-fluorotetrahydro-1H-pyrrolizin-7a(5H)-yl)methoxy)pyrido[4,3-d]pyrimidin-4-yl)-1-((E)-4-(dimethylamino)but-2-enoyl)piperazin-2-yl)acetonitrile]
[1]
  logD: 2.54
[2]
  solubility kinetic at 2 h: 114 µg/mL (≈ 165 µM)
[3]
  IC50: 10 to 100 nM

## Cn1cc(/C=C/C(=O)N2CCN(c3nc(OCC45CCCN4CCC5)nc4c3CCN(c3cccc5cccc(Cl)c35)C4)C[C@@H]2CC#N)nn1 [Compound 117]
[1]
  logD: 2.65
[2]
  solubility kinetic at 2 h: 112 µg/mL (≈ 161 µM)
[3]
  IC50: > 500 nM

## CC1(c2noc(/C=C/C(=O)N3CCN(c4nc(OCC56CCCN5CCC6)nc5c(F)c(-c6cccc7cccc(Cl)c67)ncc45)C[C@@H]3CC#N)n2)CC1 [Compound 118]
[1]
  logD: 3.24
[2]
  solubility kinetic at 2 h: 4.73 µg/mL (≈ 6.32 µM)
[3]
  IC50: 100 to 500 nM

## CC(C)c1noc(/C=C/C(=O)N2CCN(c3nc(OCC45CCCN4CCC5)nc4c(F)c(-c5cccc6cccc(Cl)c56)ncc34)C[C@@H]2CC#N)n1 [Compound 120]
[1]
  logD: 3.21
[2]
  solubility kinetic at 2 h: 26.5 µg/mL (≈ 36 µM)
[3]
  IC50: 100 to 500 nM

## CC(C)c1noc(/C=C/C(=O)N2CCN(c3nc(OC[C@@]45CCCN4C[C@H](F)C5)nc4c(F)c(-c5nc(N)cc6cccc(Cl)c56)ncc34)C[C@@H]2CC#N)n1 [Compound 122]
[1]
  logD: 3.43
[2]
  solubility kinetic at 2 h: 0.44 µg/mL (≈ 0.571 µM)
[3]
  IC50: 10 to 100 nM

## Cc1cc(N)nc(-c2ncc3c(N4CCN(C(=O)/C=C/c5nc(C(C)C)no5)[C@@H](CC#N)C4)nc(OC[C@@]45CCCN4C[C@H](F)C5)nc3c2F)c1C(F)(F)F [Compound 135]
[1]
  logD: 3.42
[2]
  solubility kinetic at 2 h: 94.6 µg/mL (≈ 123 µM)
[3]
  IC50: 10 to 100 nM

## Cc1nsc(/C=C/C(=O)N2CCN(c3nc(OC[C@@]45CCCN4C[C@H](F)C5)nc4c(F)c(-c5nc(N)cc(C)c5C(F)(F)F)ncc34)C[C@@H]2CC#N)n1 [Compound 142]
[1]
  logD: 2.55
[2]
  solubility kinetic at 2 h: 106 µg/mL (≈ 140 µM)
[3]
  IC50: < 10 nM

## Cc1nccc(/C=C/C(=O)N2CCN(c3nc(OC[C@@]45CCCN4C[C@H](F)C5)nc4c(F)c(-c5nc(N)cc(C)c5C(F)(F)F)ncc34)C[C@@H]2CC#N)n1 [Compound 145]
[1]
  logD: 2.11
[2]
  solubility kinetic at 2 h: 136 µg/mL (≈ 181 µM)
[3]
  IC50: < 10 nM

## Cc1nccc(/C=C/C(=O)N2CCN(c3nc(OC[C@@]45CCCN4C[C@H](F)C5)nc4c(F)c(-c5nc(N)cc6cccc(F)c56)ncc34)C[C@@H]2CC#N)n1 [Compound 146]
[1]
  logD: 2.14
[2]
  solubility kinetic at 2 h: 78.1 µg/mL (≈ 106 µM)
[3]
  IC50: < 10 nM

## CC(C)c1noc(/C=C/C(=O)N2CCN(c3nc(OC[C@@]45CCCN4C[C@H](F)C5)nc4c(F)c(-c5ccccc5C(F)F)ncc34)C[C@@H]2CC#N)n1 [Compound 152]
[1]
  logD: 2.62
[2]
  solubility kinetic at 2 h: 126 µg/mL (≈ 175 µM)
[3]
  IC50: > 500 nM

## Cc1ncc(F)c(/C=C/C(=O)N2CCN(c3nc(OC[C@@]45CCCN4C[C@H](F)C5)nc4c(F)c(-c5cccc6cccc(Cl)c56)ncc34)C[C@@H]2CC#N)n1 [Compound 157]
[1]
  logD: 4.05
[2]
  solubility kinetic at 2 h: 0.55 µg/mL (≈ 0.729 µM)
[3]
  IC50: 10 to 100 nM

## N#CC[C@H]1CN(c2nc(OC[C@@]34CCCN3C[C@H](F)C4)nc3c(F)c(-c4cccc5cccc(Cl)c45)ncc23)CCN1C(=O)/C=C/c1nc(C2CC2)ncc1F [Compound 158]
[1]
  logD: 4.52
[2]
  solubility kinetic at 2 h: 0.01 µg/mL (≈ 0.0128 µM)
[3]
  IC50: 100 to 500 nM

## N#CC[C@H]1CN(c2nc(OC[C@@]34CCCN3C[C@H](F)C4)nc3c(F)c(-c4cccc5ccc(F)c(Cl)c45)ncc23)CCN1C(=O)/C=C/CN1CCOC2CC21 (stereo partly drawn) [Compound 160]
[1]
  logD: 3.33
[2]
  solubility kinetic at 2 h: 86.8 µg/mL (≈ 112 µM)
[3]
  IC50: < 10 nM

## CN1CCN(C/C=C/C(=O)N2CCN(c3nc(OCC45CCCN4CCC5)nc4c3CCN(c3cccc5cccc(Cl)c35)C4)C[C@@H]2CC#N)CC1 [Compound 162]
[1]
  logD: 1.97
[2]
  solubility kinetic at 2 h: 133 µg/mL (≈ 183 µM)
[3]
  IC50: 10 to 100 nM

## N#CC[C@H]1CN(c2nc(OCC34CCCN3CCC4)nc3c2CCN(c2cccc4cccc(Cl)c24)C3)CCN1C(=O)/C=C/CN1CCCOCC1 [Compound 163]
[1]
  logD: 2.44
[2]
  solubility kinetic at 2 h: 130 µg/mL (≈ 180 µM)
[3]
  IC50: < 10 nM

## N#CC[C@H]1CN(c2nc(OCC34CCCN3CCC4)nc3c2CCN(c2cccc4cccc(Cl)c24)C3)CCN1C(=O)/C=C/CN1[C@@H]2CC[C@H]1COC2 [Compound 168]
[1]
  logD: 2.59
[2]
  solubility kinetic at 2 h: 104 µg/mL (≈ 142 µM)
[3]
  IC50: < 10 nM

## N#CC[C@H]1CN(c2nc(OCC34CCCN3CCC4)nc3c2CCN(c2cccc4cccc(Cl)c24)C3)CCN1C(=O)/C=C/CN1CCS(=O)(=O)CC1 [Compound 169]
[1]
  logD: 2.02
[2]
  solubility kinetic at 2 h: 108 µg/mL (≈ 142 µM)
[3]
  IC50: 10 to 100 nM

## N#CC[C@H]1CN(c2nc(OCC34CCCN3CCC4)nc3c2CCN(c2cccc4cccc(Cl)c24)C3)CCN1C(=O)/C=C/CN1CC2COCC(C1)O2 [Compound 172]
[1]
  logD: 2.1
[2]
  solubility kinetic at 2 h: 119 µg/mL (≈ 158 µM)
[3]
  IC50: < 10 nM

## N#CC[C@H]1CN(c2nc(OCC34CCCN3CCC4)nc3c(F)c(-c4cccc5ccc(F)c(Cl)c45)ncc23)CCN1C(=O)/C=C/CN1C[C@@H]2C[C@H]1CO2 [Compound 182]
[1]
  logD: 1.44
[2]
  solubility kinetic at 2 h: 119 µg/mL (≈ 158 µM)
[3]
  IC50: < 10 nM

## N#CC[C@H]1CN(c2nc(OCC34CCCN3CCC4)nc3c(F)c(-c4cccc5ccc(F)c(Cl)c45)ncc23)CCN1C(=O)/C=C/CN1C[C@H]2C[C@@H]1CO2 [Compound 183]
[1]
  logD: 1.48
[2]
  solubility kinetic at 2 h: 110 µg/mL (≈ 146 µM)
[3]
  IC50: < 10 nM

## N#CC[C@H]1CN(c2nc(OCC34CCCN3CCC4)nc3c2CCN(c2cccc4cccc(Cl)c24)C3)CCN1C(=O)/C=C/CN1CC2C(C1)C2(F)F (stereo partly drawn) [Compound 193]
[1]
  logD: 3.13
[2]
  solubility kinetic at 2 h: 97.3 µg/mL (≈ 131 µM)
[3]
  IC50: < 10 nM

## N#CC[C@H]1CN(c2nc(OCC34CCCN3CCC4)nc3c2CCN(c2cccc4cccc(Cl)c24)C3)CCN1C(=O)/C=C/CN1C[C@H]2COC[C@H]2C1 [Compound 195]
[1]
  logD: 2.44
[2]
  solubility kinetic at 2 h: 149 µg/mL (≈ 202 µM)
[3]
  IC50: 10 to 100 nM

## N#CC[C@H]1CN(c2nc(OCC34CCCN3CCC4)nc3c2CCN(c2cccc4cccc(Cl)c24)C3)CCN1C(=O)/C=C/CN1CC(F)C1 [Compound 201]
[1]
  logD: 2.76
[2]
  solubility kinetic at 2 h: 119 µg/mL (≈ 171 µM)
[3]
  IC50: 10 to 100 nM

## Cc1nsc(/C=C/C(=O)N2CCN(c3nc(OC[C@@]45CCCN4C[C@H](F)C5)nc4c3C[C@H](C)[C@@H](c3nc(N)cc(C)c3C(F)(F)F)C4)C[C@@H]2CC#N)n1 [Compound 203]
[1]
  logD: 4.59
[2]
  solubility kinetic at 2 h: 0.01 µg/mL (≈ 0.0132 µM)
[3]
  IC50: 10 to 100 nM

## N#CC[C@H]1CN(c2nc(OC[C@@]34CCCN3C[C@H](F)C4)nc3c(F)c(-c4cccc5cccc(Cl)c45)ncc23)CCN1C(=O)/C=C/CN1CCS(=O)(=O)CC1 [Compound 207]
[1]
  logD: 2.4
[2]
  solubility kinetic at 2 h: 29.9 µg/mL (≈ 37.8 µM)
[3]
  IC50: 100 to 500 nM

## N#CC[C@H]1CN(c2nc(OC[C@@]34CCCN3C[C@H](F)C4)nc3c(F)c(-c4cccc5ccc(F)c(F)c45)ncc23)CCN1C(=O)/C=C/CN1C[C@@H]2C[C@H]1CO2 [Compound 225]
[1]
  logD: 1.87
[2]
  solubility kinetic at 2 h: 135 µg/mL (≈ 178 µM)
[3]
  IC50: < 10 nM

## N#CC[C@H]1CN(c2nc(OC[C@@]34CCCN3C[C@H](F)C4)nc3c(F)c(-c4cccc5cccc(F)c45)ncc23)CCN1C(=O)/C=C/CN1CCSCC1 [Compound 232]
[1]
  logD: 3.68
[2]
  solubility kinetic at 2 h: 34.8 µg/mL (≈ 46.9 µM)
[3]
  IC50: < 10 nM
